From US20240108602A1, “TREATMENT OF MENTAL DISORDERS” (GH Research Ireland Limited, priority 2022, published 2024) come the findings set out here.

Series [1] can be described thus: Pharmacokinetics of 5-MeO-DMT and bufotenine after inhalation, LC-MS/MS. The format is in vivo, human. As to the method: Blood samples were obtained at 1; 2; 4; 7; 10; 15; 20; 30; 45 min and 1; 1.5; 2; 3; 4 hours after administration.
PK parameters were generated by algebraic analysis of the concentration versus time plots for each individual. The analysis was carried out using the software Phoenix WinNonlin 6.3.

Series [2] can be described thus: 5-MeO-DMT, 5-MIAA and bufotenine in urine, serum and breastmilk of a lactating PPD patient, LC-MS/MS. As to the method:
The second patients was lactating, and, per the clinical trial protocol, breastmilk samples were collected pre-dosing and at multiple timepoints after administration of the last dose. […] Similar analyses were carried out on patient serum and urine samples.

Series [3] relates to Salmonella typhimurium (TA98, TA100, TA1535 and TA1537). Put plainly: Bacterial mutation test, Salmonella typhimurium. In kind it is cell-based. From the text:
(§1) These conditions included treatments at concentrations up to […] (the maximum recommended concentration according to current regulatory guidelines), in the absence and in the presence of a rat liver metabolic activation system (S-9).

The test system of series [4] is Escherichia coli (WP2 uvrA pKM101). Put plainly: Bacterial mutation test, Escherichia coli. In kind it is cell-based. The note with it: up to 5000 pg/plate, with and without S-9.
From the text: as §1

Setting [5] is: 1.0 hrs after last dose (6 mg then 12 mg 5-MeO-DMT).

A value given as a limit tells only on which side of the number the result lay.

With `COc1ccc2[nH]cc(CCN(C)C)c2c1` [5-MeO-DMT], the “plasma concentration as % of Cmax” value is given as not above 10% in series [1] (10 minutes after administration, 6-18 mg) and not above 1% in series [1] (after 2 hours, 6-18 mg). Also, in series [1] (after 3 hours, 6-18 mg), the detectability in plasma result was “no longer detectable”. Also, the “5-MeO-DMT still present, % Cmax” value in series [1] (after about 1 hour, healthy volunteers and PPD patients) is listed as “less than 10%”. The “accumulation upon repeated administration” value in series [1] (repeat within 1 to 4 hours) is on record as “No accumulation”. In addition, the Breastmilk concentration in series [2] (setting [5]) is 2167.0 pg/mL; in series [2] (2.5 hrs after last dose), 560.6 pg/mL; in series [2] (8.5 hrs after last dose), 42.1 pg/mL; in series [2] (24.0 hrs after last dose) it was “did not detect any 5-MeO-DMT and BLG”; in series [2] (120.0 hrs after last dose), “BLQ (BLQ: Below limit of quantification. The lower limit of quantification is 25 pg/ml for both 5-MeO-DMT and 5-MIAA in both serum and breastmilk; it is 25 pg/ml in urine for 5-MeO-DMT and 250 pg/ml for 5-MIAA in urine.)”; in series [2] (−24.0 hrs (pre-dosing)), “BLQ (BLQ: Below limit of quantification. The lower limit of quantification is 25 pg/ml for both 5-MeO-DMT and 5-MIAA in both serum and breastmilk; it is 25 pg/ml in urine for 5-MeO-DMT and 250 pg/ml for 5-MIAA in urine.)”. Besides, the Serum concentration is 0.1329 ng/mL in series [2] (setting [5]); “BLQ (BLQ: Below limit of quantification. The lower limit of quantification is 25 pg/ml for both 5-MeO-DMT and 5-MIAA in both serum and breastmilk; it is 25 pg/ml in urine for 5-MeO-DMT and 250 pg/ml for 5-MIAA in urine.)” in series [2] (2.5 hrs after last dose); “BLQ (BLQ: Below limit of quantification. The lower limit of quantification is 25 pg/ml for both 5-MeO-DMT and 5-MIAA in both serum and breastmilk; it is 25 pg/ml in urine for 5-MeO-DMT and 250 pg/ml for 5-MIAA in urine.)” in series [2] (24.0 hrs after last dose); “BLQ (BLQ: Below limit of quantification. The lower limit of quantification is 25 pg/ml for both 5-MeO-DMT and 5-MIAA in both serum and breastmilk; it is 25 pg/ml in urine for 5-MeO-DMT and 250 pg/ml for 5-MIAA in urine.)” in series [2] (120.0 hrs after last dose); “BLQ (BLQ: Below limit of quantification. The lower limit of quantification is 25 pg/ml for both 5-MeO-DMT and 5-MIAA in both serum and breastmilk; it is 25 pg/ml in urine for 5-MeO-DMT and 250 pg/ml for 5-MIAA in urine.)” in series [2] (−24.0 hrs (pre-dosing)). Further, the Urine concentration in series [2] (2.5 hrs after last dose) was 566.7 pg/mL; in series [2] (8.5 hrs after last dose) it was “BLQ (BLQ: Below limit of quantification. The lower limit of quantification is 25 pg/ml for both 5-MeO-DMT and 5-MIAA in both serum and breastmilk; it is 25 pg/ml in urine for 5-MeO-DMT and 250 pg/ml for 5-MIAA in urine.)”; in series [2] (24.0 hrs after last dose) it was “BLQ (BLQ: Below limit of quantification. The lower limit of quantification is 25 pg/ml for both 5-MeO-DMT and 5-MIAA in both serum and breastmilk; it is 25 pg/ml in urine for 5-MeO-DMT and 250 pg/ml for 5-MIAA in urine.)”; in series [2] (120.0 hrs after last dose), “BLQ (BLQ: Below limit of quantification. The lower limit of quantification is 25 pg/ml for both 5-MeO-DMT and 5-MIAA in both serum and breastmilk; it is 25 pg/ml in urine for 5-MeO-DMT and 250 pg/ml for 5-MIAA in urine.)”; in series [2] (−24.0 hrs (pre-dosing)) it was “BLQ (BLQ: Below limit of quantification. The lower limit of quantification is 25 pg/ml for both 5-MeO-DMT and 5-MIAA in both serum and breastmilk; it is 25 pg/ml in urine for 5-MeO-DMT and 250 pg/ml for 5-MIAA in urine.)”. The “in vitro genotoxicity assessment” value in series [3] is on record as “negative”. Further, the induction of mutation result in series [3] (up to 5000 μg/plate, with and without S-9) is on record as “did not induce mutation”; in series [4], “did not induce mutation”.
